From patent US10233186B2, “Inhibitors of activin receptor-like kinase” (BLUEPRINT MEDICINES CORPORATION, priority 2016, dated 2019)

How the values were obtained:
human ALK2 R206H = target: T1, human ALK2 R206H (Homo sapiens, UniProt Q04771, R206H); assay: Cell-based ALK2-R206H cell activity assay (Smad1-Ser463/Ser465 phosphorylation by AlphaLISA in HEK293-ALK2-R206H cells); details: read-out: Cell Line (Cell Assay IC50)
T1 construct: expressed in transfected cells; host or cells: HEK293 (ATCC CRL1573), lentivirus transduction, blasticidin selection
T1 sequence (Q04771 21-509 R206H): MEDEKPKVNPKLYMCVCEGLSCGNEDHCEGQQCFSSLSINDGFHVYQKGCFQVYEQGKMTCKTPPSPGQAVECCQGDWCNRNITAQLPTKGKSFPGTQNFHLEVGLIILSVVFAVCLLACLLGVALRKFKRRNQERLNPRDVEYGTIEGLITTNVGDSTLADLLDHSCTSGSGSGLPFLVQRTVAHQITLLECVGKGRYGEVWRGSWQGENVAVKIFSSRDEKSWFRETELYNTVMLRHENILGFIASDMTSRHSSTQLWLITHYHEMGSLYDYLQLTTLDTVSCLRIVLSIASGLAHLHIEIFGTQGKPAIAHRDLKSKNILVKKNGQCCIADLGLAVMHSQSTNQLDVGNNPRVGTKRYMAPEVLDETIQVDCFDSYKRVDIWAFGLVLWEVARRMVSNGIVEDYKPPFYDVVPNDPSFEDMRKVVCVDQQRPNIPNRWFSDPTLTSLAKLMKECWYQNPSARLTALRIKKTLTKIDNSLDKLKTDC
Procedure, shortened: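 Stable HEK293 cells expressing C-terminally FLAG-tagged human ALK2 R206H (lentiviral, blasticidin-selected) were treated with compounds in 10-point, 3-fold dilutions from 10 μM or 1 μM top, in duplicate. Smad1 Ser463/Ser465 phosphorylation was read by AlphaLISA.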

[1] = target: T2, ALK2 R206H (GST-tagged mutant ALK2) (Homo sapiens, UniProt Q04771, R206H); assay: ALK binding assay (LANTHASCREEN TR-FRET competitive binding, displacement of Kinase Tracer 178); details: ALK2 R206H, LANTHASCREEN TR-FRET competitive binding; read-out: Binding Assay (IC50)
T2 construct: purchased Carna Bioscience or ThermoFisher 09-148 or PV6232
T2 sequence (Q04771 21-509 R206H): T1 sequence (Q04771 21-509 R206H)

SMILES	IC50 (human ALK2 R206H) [µM]	IC50 [1] [µM]
COC1(c2ccc(-c3cc4c(N5CCN(C(=O)OC(C)C)CC5)ccnn4c3)cc2)CCN(C(C)C)CC1 [Compound 685]	< 0.1	< 0.01
COC1(c2ccc(-c3cc4c(N5CCN(C(=O)NC(C)C)CC5)ccnn4c3)nc2)CCN(C(C)C)CC1 [Compound 688]	< 0.1	< 0.01
COC1(c2cnc(-c3cc4c(N5CCN(C(=O)C6CC6)CC5)ccnn4c3)c(F)c2)CCN(C(C)C)CC1 [Compound 689]	0.1 to 0.5	< 0.01
CCNC(=O)N1CCN(c2ccnn3cc(-c4ccc(C5(OC)CCN(C(C)C)CC5)c(F)c4)cc23)CC1 [Compound 697]	< 0.1	< 0.01
CCOC(=O)N1CCN(c2ccnn3cc(-c4ccc(C5(OC)CCN(C(C)C)CC5)cc4F)cc23)CC1 [Compound 701, ethyl 4-(6-(2-fluoro-4-(1-isopropyl-4-methoxypiperidin-4-yl)phenyl)pyrrolo[1,2-b]pyridazin-4-yl)piperazine-1-carboxylate]	< 0.1	< 0.01
COC1(c2ccc(-c3cc4c(N5CCN(C(=O)[C@H]6C[C@@H]6C#N)CC5)ccnn4c3)cc2)CCN(C(C)C)CC1 [Compound 705]	< 0.1	< 0.01
CC(C)N1CCC(c2ccc(-c3cc4c(N5CCN(C(=O)NCC(F)(F)F)CC5)ccnn4c3)cc2)CC1 [Compound 708]	< 0.1	< 0.01
COCC(C)N1CCC(OC)(c2ccc(-c3cc4c(N5CCN(C(=O)C6CC6)CC5)ccnn4c3)nc2)CC1 (centres unmarked) [Compound 710]	< 0.1	< 0.01
COC[C@H](C)N1CCC(OC)(c2ccc(-c3cc4c(N5CCN(C(=O)C6CC6)CC5)ccnn4c3)nc2)CC1 [Compound 711]	< 0.1	< 0.01
CCOC1(c2ccc(-c3cc4c(N5CCN(C(=O)NC(C)C)CC5)ccnn4c3)cc2)CCN(C(C)C)CC1 [Compound 712]	< 0.1	< 0.01
COC1(c2ccc(-c3cc4c(N5CCN(C(=O)OC6COC6)CC5)ccnn4c3)cc2)CCN(C(C)C)CC1 [Compound 713]	< 0.1	< 0.01
COC1(c2ccc(-c3cc4c(N5CCN(C(=O)NC(C)C)CC5)ccnn4c3)nc2)CCN(C2COC2)CC1 [Compound 714]	< 0.1	< 0.01
CCOC1(c2ccc(-c3cc4c(N5CCN(C(=O)NC(C)C)CC5)ccnn4c3)nc2)CCN(C(C)C)CC1 [Compound 715]	< 0.1	< 0.01
COC1(c2ccc(-c3cc4c(N5CCN(C(=O)NC(C)C)CC5)ccnn4c3)cc2F)CCN(C(C)C)CC1 [Compound 720]	< 0.1	< 0.01
COC1(c2ccc(-c3cc4c(N5CCN(C(=O)NC(C)C)CC5)ccnn4c3)c(F)c2)CCN(C(C)C)CC1 [Compound 721]	< 0.1	< 0.01
COC1(c2cnc(-c3cc4c(N5CCN(C(=O)NC(C)C)CC5)ccnn4c3)c(F)c2)CCN(C(C)C)CC1 [Compound 725]	< 0.1	< 0.01
CC(C)N1CCC(c2ccc(-c3cc4c(N5CCN(C(=O)C6CC6)CC5)ccnn4c3)cc2)(C(F)(F)F)CC1 [Compound 727]	< 0.1	< 0.01
COC1(c2ccc(-c3cc4c(N5CCN(C(=O)[C@H]6C[C@H](C#N)C6)CC5)ccnn4c3)cc2)CCN(C(C)C)CC1 [Compound 728]	< 0.1	< 0.01
COC1(c2ccc(-c3cc4c(N5CCN(C(=O)[C@H]6C[C@H](C#N)C6)CC5)ccnn4c3)nc2)CCN(C(C)C)CC1 [Compound 731]	< 0.1	< 0.01
CC(C)(C)OC(=O)N1CCC(N)(c2ccc(-c3cc4c(N5CCN(C(=O)C6CC6)CC5)ccnn4c3)cc2)CC1 [Compound 732]	0.1 to 0.5	< 0.01
COC1(c2ccc(-c3cc4c(N5CCN(C(=O)OC6COC6)CC5)ccnn4c3)nc2)CCN(C2COC2)CC1 [Compound 733]	< 0.1	< 0.01
CCOC1(c2ccc(-c3cc4c(N5CCN(C(=O)OC6COC6)CC5)ccnn4c3)nc2)CCN(C(C)C)CC1 [Compound 734]	< 0.1	< 0.01
COC[C@@H](C)N1CCC(OC)(c2ccc(-c3cc4c(N5CCN(C(=O)NC(C)C)CC5)ccnn4c3)nc2)CC1 [Compound 735]	< 0.1	< 0.01
COC[C@H](C)N1CCC(OC)(c2ccc(-c3cc4c(N5CCN(C(=O)NC(C)C)CC5)ccnn4c3)nc2)CC1 [Compound 736]	< 0.1	< 0.01

The remaining lines, values ahead:

IC50 (human ALK2 R206H) [µM]	IC50 [1] [µM]	SMILES
< 0.1	< 0.01	CO[C@]1(c2ccc(-c3cc4c(N5CCN(C(=O)C6CC6)CC5)ccnn4c3)cc2F)CCCN(C(C)C)C1 [Compound 683]
< 0.1	< 0.01	CO[C@@]1(c2ccc(-c3cc4c(N5CCN(C(=O)C6CC6)CC5)ccnn4c3)cc2F)CCCN(C(C)C)C1 [Compound 684]
< 0.1	< 0.01	CO[C@@]1(c2ccc(-c3cc4c(N5CCN(C(=O)NC(C)C)CC5)ccnn4c3)nc2)CCCN(C(C)C)C1 [Compound 686]
< 0.1	< 0.01	CO[C@]1(c2ccc(-c3cc4c(N5CCN(C(=O)NC(C)C)CC5)ccnn4c3)nc2)CCCN(C(C)C)C1 [Compound 687]
< 0.1	< 0.01	CC(C)N1CCC[C@@](F)(c2ccc(-c3cc4c(N5CCN(C(=O)OC6COC6)CC5)ccnn4c3)cc2)C1 [Compound 690]
< 0.1	< 0.01	CC(C)N1CCC[C@](F)(c2ccc(-c3cc4c(N5CCN(C(=O)OC6COC6)CC5)ccnn4c3)cc2)C1 [Compound 691]
< 0.1	< 0.01	CC(C)N1CCC[C@@H](c2ccc(-c3cc4c(N5CCN(C(=O)OC6COC6)CC5)ccnn4c3)cc2F)C1 [Compound 692]
< 0.1	< 0.01	CC(C)N1CCC[C@H](c2ccc(-c3cc4c(N5CCN(C(=O)OC6COC6)CC5)ccnn4c3)cc2F)C1 [Compound 693]
< 0.1	< 0.01	CC(C)N1CCC(c2ccc(-c3cc4c(N5CCN(C(=O)OC6COC6)CC5)ccnn4c3)c(F)c2)CC1 [Compound 694]
< 0.1	< 0.01	CC(C)N1CCC[C@@](F)(c2ccc(-c3cc4c(N5CCN(C(=O)OC6COC6)CC5)ccnn4c3)nc2)C1 [Compound 695]
< 0.1	< 0.01	CC(C)N1CCC[C@](F)(c2ccc(-c3cc4c(N5CCN(C(=O)OC6COC6)CC5)ccnn4c3)nc2)C1 [Compound 696]
< 0.1	< 0.01	CCNC(=O)N1CCN(c2ccnn3cc(-c4ccc([C@@]5(OC)CCCN(C(C)C)C5)c(F)c4)cc23)CC1 [Compound 698]
< 0.1	< 0.01	CCNC(=O)N1CCN(c2ccnn3cc(-c4ccc([C@]5(OC)CCCN(C(C)C)C5)c(F)c4)cc23)CC1 [Compound 699]
< 0.1	< 0.01	CC(C)N1CC[C@@H](c2ccc(-c3cc4c(N5CCN(C(=O)[C@H]6CC[C@H](C#N)CC6)CC5)ccnn4c3)nc2)C1 [Compound 702]
< 0.1	< 0.01	CC(C)N1CC[C@H](c2ccc(-c3cc4c(N5CCN(C(=O)[C@H]6CC[C@H](C#N)CC6)CC5)ccnn4c3)nc2)C1 [Compound 703]
< 0.1	< 0.01	CC(C)N1CCC(c2ccc(-c3cc4c(N5CCN(C(=O)OC6CC(C#N)C6)CC5)ccnn4c3)cc2)CC1 (centres unmarked) [Compound 704]
< 0.1	< 0.01	CC(C)N1CC(O)(c2ccc(-c3cc4c(N5CCN(C(=O)C6CCC(C#N)CC6)CC5)ccnn4c3)cc2)C1 (centres unmarked) [Compound 706]
0.1 to 0.5	< 0.01	CC(C)N1CCC(c2ccc(-c3cc4c(N5CCN(C(=O)OC6CCOCC6)CC5)ccnn4c3)cc2)CC1 [Compound 709]
< 0.1	< 0.01	CCO[C@@]1(c2ccc(-c3cc4c(N5CCN(C(=O)NC(C)C)CC5)ccnn4c3)nc2)CCCN(C(C)C)C1 [Compound 716]
< 0.1	< 0.01	CO[C@@]1(c2ccc(-c3cc4c(N5CCN(C(=O)OC6COC6)CC5)ccnn4c3)nc2)CCCN(C(C)C)C1 [Compound 718]
< 0.1	< 0.01	COC1(c2ccc(-c3cc4c(N5CCN(C(=O)NC(C)C)CC5)ccnn4c3)cc2F)CCCN(C(C)C)C1 (centres unmarked) [Compound 722]
< 0.1	< 0.01	CO[C@]1(c2ccc(-c3cc4c(N5CCN(C(=O)NC(C)C)CC5)ccnn4c3)cc2F)CCCN(C(C)C)C1 [Compound 723]
< 0.1	< 0.01	CO[C@@]1(c2ccc(-c3cc4c(N5CCN(C(=O)NC(C)C)CC5)ccnn4c3)cc2F)CCCN(C(C)C)C1 [Compound 724]
0.1 to 0.5	< 0.01	CC(C)N1CCC(c2ccc(-c3cc4c(N5CCN(C(=O)OC6COC6)CC5)ccnn4c3)c(Cl)c2)CC1 [Compound 726]
< 0.1	< 0.01	COC1(c2ccc(-c3cc4c(N5CCN(C(=O)C6CCC(C#N)CC6)CC5)ccnn4c3)cc2)CN(C(C)C)C1 (centres unmarked) [Compound 729]
